*1 amine or outer side, *2 acyl side, *3 side chain or, on linkers, in order; H or OH if unused. Where a SMILES comes first, the peptide text is derived from it. [ ]: non-standard residue; d: D form. The star is where a group is joined. ξ: configuration not given here. X1 = O=C(Cc1ccc(N[*:1])cc1)[*:2]; Ile(3ξ) = CCC(C)[C@H](N)C(=O)O; X4 = O=C(Cc1ccccc1N[*:1])[*:2]; NH(2-Me-phenyl) = Cc1ccccc1N*; β3hP = O=C(O)C[C@@H]1CCCN1; β3hD = NC(CC(=O)O)CC(=O)O; Nle = CCCC[C@H](N)C(=O)O; Abu = CC[C@H](N)C(=O)O; Dap = NC[C@H](N)C(=O)O; Ac3c = NC1(C(=O)O)CC1; Aib = CC(C)(N)C(=O)O; CO = O=C([*:1])[*:2]; Butyryl = CCCC(=O)*; X10 = Brc1ccccc1N*

For orientation: IC50 means the concentration needed to halve the response being measured. A low value points to greater potency.

One assay concerns the target Integrin alpha-4/beta-1 (Homo sapiens, UniProt P05556+P13612, T112H). The assay can be described thus: Jurkat Cell Adhesion Inhibition Assay.
Conditions: not given
The procedure:
Binding affinities (IC50) of the ligands were studied in a Jurkat cell adhesion assay by inhibiting the alpha-4/beta-1 mediated cell adhesion to CS-1 peptides. The 96-well plates were coated with neutravidin, followed by biotinconjugated CS-1 peptides. Jurkat cells with series dilutions of tested ligands in binding buffer were added and allowed to bind for 30 min. Bound cells were recorded using a 96-well plate reader at 570 nm. IC50 values were calculated from inhibition curves resulting from the concentration-dependent inhibition
`CCCC[C@H](NC(=O)Cc1ccc(NC(=O)Nc2ccccc2C)cc1)C(=O)N[C@@H](CC(=O)O)CC(=O)N[C@H](C(=O)N1CCC[C@H]1C(N)=O)C(C)CC` (stereo partly drawn) [(3R)-4-{[(2S,3R)-1-[(2S)-2-carbamoylpyrrolidin-1-yl]-3-methyl-1-oxopentan-2-yl]carbamoyl}-3-[(2S)-2-[1-(4-{[(2-methylphenyl)carbamoyl]amino}phenyl)acetamido]hexanamido]butanoic acid] ({NH(2-Me-phenyl)-CO}-[X1][Nle][β3hD][Ile(3ξ)]P-NH2) gave an IC50 of 4 nM.

For the molecule `CCCC[C@H](NC(=O)Cc1ccc(NC(=O)Nc2ccccc2C)cc1)C(=O)N[C@@H](CC(=O)O)C(=O)NC(C)(C)C(=O)N1CCC[C@H]1C(N)=O` [(3S)-3-({1-[(2S)-2-carbamoylpyrrolidin-1-yl]-2-methyl-1-oxopropan-2-yl}carbamoyl)-3-[(2S)-2-[1-(4-{[(2-methylphenyl)carbamoyl]amino}phenyl)acetamido]hexanamido]propanoic acid] ({NH(2-Me-phenyl)-CO}-[X1][Nle]D[Aib]P-NH2), inhibition was half-maximal at 13 nM (IC50).

In the case of `CCCC[C@H](NC(=O)Cc1ccc(NC(=O)Nc2ccccc2C)cc1)C(=O)N[C@@H](CC(=O)O)C(=O)NC1(C(=O)N2CCC[C@H]2C(N)=O)CC1` [(3S)-3-[(1-{[(2S)-2-carbamoylpyrrolidin-1-yl]carbonyl}cyclopropyl)carbamoyl]-3-[(2S)-2-[1-(4-{[(2-methylphenyl)carbamoyl]amino}phenyl)acetamido]hexanamido]propanoic acid] ({NH(2-Me-phenyl)-CO}-[X1][Nle]D[Ac3c]P-NH2), the IC50 was found to be 9.2 nM.

For `CCCC[C@H](NC(=O)Cc1ccc(NC(=O)Nc2ccccc2Br)cc1)C(=O)N[C@@H](CC(=O)O)C(=O)N[C@H](C(=O)N1CCC[C@H]1C(N)=O)C(C)CC` (stereo partly drawn) [(3S)-3-[(2S)-2-[1-(4-{[(2-bromophenyl)carbamoyl]amino}phenyl)acetamido]hexanamido]-3-{[(2S,3S)-1-[(2S)-2-carbamoylpyrrolidin-1-yl]-3-methyl-1-oxopentan-2-yl]carbamoyl}propanoic acid] ({X10-CO}-[X1][Nle]D[Ile(3ξ)]P-NH2), the IC50 was found to be 4.8 nM.

For the molecule `CCCC(=O)NC[C@H](NC(=O)Cc1ccc(NC(=O)Nc2ccccc2C)cc1)C(=O)N[C@@H](CC(=O)O)C(=O)N[C@H](C(=O)N1CCC[C@H]1C(N)=O)C(C)CC` (stereo partly drawn) [(3S)-3-[(2S)-3-butanamido-2-[1-(4-{[(2-methylphenyl)carbamoyl]amino}phenyl)acetamido]propanamido]-3-{[(2S,3S)-1-[(2S)-2-carbamoylpyrrolidin-1-yl]-3-methyl-1-oxopentan-2-yl]carbamoyl}propanoic acid] ({NH(2-Me-phenyl)-CO}-[X1][Dap](Butyryl)D[Ile(3ξ)]P-NH2), the IC50 was 138 nM.

As for `CCCC[C@H](NC(=O)Cc1ccc(NC(=O)Nc2ccccc2C)cc1)C(=O)N[C@@H](CC(=O)O)C(=O)N[C@@H](CC)C(=O)N1CCC[C@H]1C(N)=O` [(3S)-3-{[(2S)-1-[(2S)-2-carbamoylpyrrolidin-1-yl]-1-oxobutan-2-yl]carbamoyl}-3-[(2S)-2-[1-(4-{[(2-methylphenyl)carbamoyl]amino}phenyl)acetamido]hexanamido]propanoic acid] ({NH(2-Me-phenyl)-CO}-[X1][Nle]D[Abu]P-NH2), the concentration for half-maximal inhibition (IC50) was 2.9 nM.

Molecule `CCCC[C@H](NC(=O)Cc1ccc(NC(=O)Nc2ccccc2C)cc1)C(=O)N[C@@H](CC(=O)O)C(=O)N[C@H](C(=O)N1CCC[C@H]1C(N)=O)C(C)C` [(3S)-3-{[(2S)-1-[(2S)-2-carbamoylpyrrolidin-1-yl]-3-methyl-1-oxobutan-2-yl]carbamoyl}-3-[(2S)-2-[1-(4-{[(2-methylphenyl)carbamoyl]amino}phenyl)acetamido]hexanamido]propanoic acid] ({NH(2-Me-phenyl)-CO}-[X1][Nle]DVP-NH2) came in with an IC50 of 0.6 nM.

`CCCC[C@H](NC(=O)Cc1ccccc1NC(=O)Nc1ccccc1C)C(=O)N[C@@H](CC(=O)O)C(=O)N[C@H](C(=O)N1CCC[C@H]1C(N)=O)C(C)CC` (stereo partly drawn) [(3S)-3-{[(2S,3S)-1-[(2S)-2-carbamoylpyrrolidin-1-yl]-3-methyl-1-oxopentan-2-yl]carbamoyl}-3-[(2S)-2-[1-(2-{[(2-methylphenyl)carbamoyl]amino}phenyl)acetamido]hexanamido]propanoic acid] ({NH(2-Me-phenyl)-CO}-[X4][Nle]D[Ile(3ξ)]P-NH2): 3000 nM corresponded to half-maximal inhibition (IC50).

The same assay, now with this note: pH 7.5; 22 °C.
For `CCCC[C@H](NC(=O)Cc1ccc(NC(=O)Nc2ccccc2C)cc1)C(=O)N[C@@H](CC(=O)O)C(=O)N[C@H](C(=O)NC1CCCC1C(N)=O)C(C)CC` (stereo partly drawn) [(3S)-3-{[(1S,2S)-1-[(2-carbamoylcyclopentyl)carbamoyl]-2-methylbutyl]carbamoyl}-3-[(2S)-2-[1-(4-{[(2-methylphenyl)carbamoyl]amino}phenyl)acetamido]hexanamido]propanoic acid], the IC50 is 3.4 nM.

`CCCC[C@H](NC(=O)Cc1ccc(NC(=O)Nc2ccccc2C)cc1)C(=O)N[C@@H](CC(=O)O)C(=O)N[C@H](C(=O)Nc1cccc(C(N)=O)c1)C(C)CC` (stereo partly drawn) [(3S)-3-{[(1S,2S)-1-[(3-carbamoylphenyl)carbamoyl]-2-methylbutyl]carbamoyl}-3-[(2S)-2-[1-(4-{[(2-methylphenyl)carbamoyl]amino}phenyl)acetamido]hexanamido]propanoic acid] had an IC50 of 3.3 nM.

With `CCCC[C@H](NC(=O)Cc1ccc(NC(=O)Nc2ccccc2C)cc1)C(=O)N[C@@H](CC(=O)O)C(=O)N[C@H](C(=O)NC1CC[C@@H]2SC[C@@H](C(N)=O)N2C1=O)[C@@H](C)CC` (stereo partly drawn) [(3S)-3-{[(1S,2S)-1-{[(3R,8aS)-3-carbamoyl-5-oxo-hexahydro-2H-pyrido[2,1-b][1,3]thiazol-6-yl]carbamoyl}-2-methylbutyl]carbamoyl}-3-[(2S)-2-[1-(4-{[(2-methylphenyl)carbamoyl]amino}phenyl)acetamido]hexanamido]propanoic acid], the IC50 worked out at 3.4 nM.

Molecule `CCCC[C@H](NC(=O)Cc1ccc(NC(=O)Nc2ccccc2C)cc1)C(=O)N[C@@H](CC(=O)O)C(=O)N[C@H](C(=O)N1CCCC(C(N)=O)C1)C(C)CC` (stereo partly drawn) [(3S)-3-{[(2S,3S)-1-(3-carbamoylpiperidin-1-yl)-3-methyl-1-oxopentan-2-yl]carbamoyl}-3-[(2S)-2-[1-(4-{[(2-methylphenyl)carbamoyl]amino}phenyl)acetamido]hexanamido]propanoic acid] returned an IC50 of 4 nM.

Regarding `CCCC[C@H](NC(=O)Cc1ccc(NC(=O)Nc2ccccc2C)cc1)C(=O)N[C@@H](CC(=O)O)C(=O)N[C@H](C(=O)N1CCC(C(N)=O)CC1)C(C)CC` (stereo partly drawn) [(3S)-3-{[(2S,3S)-1-(4-carbamoylpiperidin-1-yl)-3-methyl-1-oxopentan-2-yl]carbamoyl}-3-[(2S)-2-[1-(4-{[(2-methylphenyl)carbamoyl]amino}phenyl)acetamido]hexanamido]propanoic acid], the IC50 is 3.3 nM.

The molecule `CCCC[C@H](NC(=O)Cc1ccc(NC(=O)Nc2ccccc2C)cc1)C(=O)N[C@@H](CC(=O)O)C(=O)N[C@H](C(=O)N1CCC2(CC1)C(=O)N(CC(N)=O)CN2c1ccccc1)C(C)CC` (stereo partly drawn) [(3S)-3-{[(2S,3S)-1-[3-(carbamoylmethyl)-4-oxo-1-phenyl-1,3,8-triazaspiro[4.5]decan-8-yl]-3-methyl-1-oxopentan-2-yl]carbamoyl}-3-[(2S)-2-[1-(4-{[(2-methylphenyl)carbamoyl]amino}phenyl)acetamido]hexanamido]propanoic acid] returned an IC50 of 29 nM.

Molecule `CCCC[C@H](NC(=O)Cc1ccc(NC(=O)Nc2ccccc2C)cc1)C(=O)N[C@@H](CC(=O)O)C(=O)N[C@H](C(=O)N1CCCC[C@@H]1C(N)=O)C(C)CC` (stereo partly drawn) [(3S)-3-{[(2S,3S)-1-[(2R)-2-carbamoylpiperidin-1-yl]-3-methyl-1-oxopentan-2-yl]carbamoyl}-3-[(2S)-2-[1-(4-{[(2-methylphenyl)carbamoyl]amino}phenyl)acetamido]hexanamido]propanoic acid] gave an IC50 of 3 nM.

`CCCC[C@H](NC(=O)Cc1ccc(NC(=O)Nc2ccccc2C)cc1)C(=O)N[C@@H](CC(=O)O)C(=O)N[C@H](C(=O)N1CCC[C@@H]1C(N)=O)C(C)CC` (stereo partly drawn) [(3S)-3-{[(2S,3S)-1-[(2R)-2-carbamoylpyrrolidin-1-yl]-3-methyl-1-oxopentan-2-yl]carbamoyl}-3-[(2S)-2-[1-(4-{[(2-methylphenyl)carbamoyl]amino}phenyl)acetamido]hexanamido]propanoic acid] displayed an IC50 of 2.9 nM.

The molecule `CCCC[C@H](NC(=O)Cc1ccc(NC(=O)Nc2ccccc2C)cc1)C(=O)N[C@@H](CC(=O)O)C(=O)N[C@H](C(=O)N1CCC[C@H]1CC(N)=O)C(C)CC` (stereo partly drawn) [(3S)-3-{[(2S,3S)-1-[(2S)-2-(carbamoylmethyl)pyrrolidin-1-yl]-3-methyl-1-oxopentan-2-yl]carbamoyl}-3-[(2S)-2-[1-(4-{[(2-methylphenyl)carbamoyl]amino}phenyl)acetamido]hexanamido]propanoic acid] ({NH(2-Me-phenyl)-CO}-[X1][Nle]D[Ile(3ξ)][β3hP]-NH2) showed an IC50 of 3.1 nM.

Take `CCCC[C@H](NC(=O)Cc1ccc(NC(=O)Nc2ccccc2C)cc1)C(=O)N[C@@H](CC(=O)O)C(=O)N[C@H](C(=O)N1CC(O)C[C@H]1C(N)=O)C(C)CC` (stereo partly drawn) [(3S)-3-{[(2S,3S)-1-[(2S)-2-carbamoyl-4-hydroxypyrrolidin-1-yl]-3-methyl-1-oxopentan-2-yl]carbamoyl}-3-[(2S)-2-[1-(4-{[(2-methylphenyl)carbamoyl]amino}phenyl)acetamido]hexanamido]propanoic acid]: the IC50 was 3 nM.

Regarding `CCCC[C@H](NC(=O)Cc1ccc(NC(=O)Nc2ccccc2C)cc1)C(=O)N[C@@H](CC(=O)O)C(=O)N[C@H](C(=O)N1CCCC[C@H]1C(N)=O)C(C)CC` (stereo partly drawn) [(3S)-3-{[(2S,3S)-1-[(2S)-2-carbamoylpiperidin-1-yl]-3-methyl-1-oxopentan-2-yl]carbamoyl}-3-[(2S)-2-[1-(4-{[(2-methylphenyl)carbamoyl]amino}phenyl)acetamido]hexanamido]propanoic acid], it took 1.4 nM to reach half-maximal inhibition (IC50).

(Values after BindingDB's records for doi:10.1002/bip.20588 (University of California Davis, 2006).)
